Experimental data: ChEMBL document CHEMBL4825755 (J Med Chem, 2021)
Values after ≈ are worked out from the molar mass of the structure shown. Active and inactive are the calls of the source. The calls are words filed in the database; no cut-off is given here.

How the values were obtained:
Homo sapiens = species: Homo sapiens; assay: Selectivity ratio of IC50 for inhibition of recombinant human N-terminal His6-tagged full length P110delta/full length untagged human p85alpha expressed in baculovirus infected Sf21 insect cells to IC50 for inhibition of PI3Kdelta in human whole blood
[1] = molecular target: PI3-kinase p110-alpha/p85-alpha (Homo sapiens, UniProt P42336); assay: Inhibition of recombinant human N-terminal His6-tagged full length P110alpha/full length untagged human p85alpha expressed in baculovirus infected Sf21 insect cells using PIP2 as substrate preincubated for 15 mins followed by substrate addition and measured after 60 mins by HTRF assay
PI3-kinase p110-alpha/p85-alpha, sequence (P27986 whole entry): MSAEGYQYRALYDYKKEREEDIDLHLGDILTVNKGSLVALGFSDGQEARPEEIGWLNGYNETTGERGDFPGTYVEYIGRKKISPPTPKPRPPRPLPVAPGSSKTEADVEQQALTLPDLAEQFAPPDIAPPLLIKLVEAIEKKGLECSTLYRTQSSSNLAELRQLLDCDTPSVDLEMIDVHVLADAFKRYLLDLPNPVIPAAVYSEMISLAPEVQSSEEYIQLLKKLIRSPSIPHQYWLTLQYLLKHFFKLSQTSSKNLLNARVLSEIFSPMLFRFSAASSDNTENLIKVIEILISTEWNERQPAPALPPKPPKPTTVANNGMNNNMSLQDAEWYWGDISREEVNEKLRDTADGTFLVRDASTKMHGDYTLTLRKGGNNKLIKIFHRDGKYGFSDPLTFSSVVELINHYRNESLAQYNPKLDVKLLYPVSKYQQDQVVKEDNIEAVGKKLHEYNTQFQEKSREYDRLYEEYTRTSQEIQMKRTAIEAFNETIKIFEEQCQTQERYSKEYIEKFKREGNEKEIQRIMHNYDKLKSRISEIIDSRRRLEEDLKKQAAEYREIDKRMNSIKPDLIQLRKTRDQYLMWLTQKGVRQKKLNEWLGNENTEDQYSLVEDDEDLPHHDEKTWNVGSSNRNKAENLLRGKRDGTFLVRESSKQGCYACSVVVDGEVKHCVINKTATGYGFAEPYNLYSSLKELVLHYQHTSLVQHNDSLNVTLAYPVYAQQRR
PI3-kinase p110-alpha/p85-alpha, sequence (P42336 whole entry): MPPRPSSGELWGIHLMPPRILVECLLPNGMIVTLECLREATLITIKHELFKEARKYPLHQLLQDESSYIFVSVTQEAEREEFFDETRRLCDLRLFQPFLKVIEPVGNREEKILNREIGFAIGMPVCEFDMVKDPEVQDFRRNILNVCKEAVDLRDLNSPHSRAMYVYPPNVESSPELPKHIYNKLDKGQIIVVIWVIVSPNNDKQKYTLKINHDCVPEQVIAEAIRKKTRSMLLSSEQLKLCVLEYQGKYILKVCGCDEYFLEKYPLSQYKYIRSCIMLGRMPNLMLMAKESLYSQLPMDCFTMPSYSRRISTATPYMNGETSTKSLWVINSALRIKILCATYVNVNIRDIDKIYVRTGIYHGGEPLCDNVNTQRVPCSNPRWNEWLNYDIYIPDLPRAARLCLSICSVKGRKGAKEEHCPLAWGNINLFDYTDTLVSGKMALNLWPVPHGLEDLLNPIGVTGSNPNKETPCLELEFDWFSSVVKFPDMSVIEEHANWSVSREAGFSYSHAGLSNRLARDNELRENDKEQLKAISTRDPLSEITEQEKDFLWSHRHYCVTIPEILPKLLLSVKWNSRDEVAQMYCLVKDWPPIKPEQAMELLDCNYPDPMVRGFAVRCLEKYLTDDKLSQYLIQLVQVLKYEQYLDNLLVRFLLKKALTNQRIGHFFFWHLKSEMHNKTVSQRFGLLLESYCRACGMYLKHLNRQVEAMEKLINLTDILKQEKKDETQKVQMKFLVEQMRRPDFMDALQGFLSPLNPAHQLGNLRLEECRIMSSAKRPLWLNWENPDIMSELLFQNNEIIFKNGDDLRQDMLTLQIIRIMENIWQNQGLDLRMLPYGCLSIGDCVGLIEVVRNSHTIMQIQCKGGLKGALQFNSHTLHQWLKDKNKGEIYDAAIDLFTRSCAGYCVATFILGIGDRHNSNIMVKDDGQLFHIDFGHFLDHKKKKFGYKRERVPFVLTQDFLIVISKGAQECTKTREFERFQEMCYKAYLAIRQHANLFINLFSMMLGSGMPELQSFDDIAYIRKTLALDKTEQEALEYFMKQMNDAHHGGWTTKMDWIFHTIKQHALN

serum albumin = serum albumin (Homo sapiens, UniProt P02768); assay: Binding affinity to human serum albumin by HPLC analysis; format: ADME, cell-free; conditions: read-out: PB (converted)
serum albumin, sequence (P02768 whole entry): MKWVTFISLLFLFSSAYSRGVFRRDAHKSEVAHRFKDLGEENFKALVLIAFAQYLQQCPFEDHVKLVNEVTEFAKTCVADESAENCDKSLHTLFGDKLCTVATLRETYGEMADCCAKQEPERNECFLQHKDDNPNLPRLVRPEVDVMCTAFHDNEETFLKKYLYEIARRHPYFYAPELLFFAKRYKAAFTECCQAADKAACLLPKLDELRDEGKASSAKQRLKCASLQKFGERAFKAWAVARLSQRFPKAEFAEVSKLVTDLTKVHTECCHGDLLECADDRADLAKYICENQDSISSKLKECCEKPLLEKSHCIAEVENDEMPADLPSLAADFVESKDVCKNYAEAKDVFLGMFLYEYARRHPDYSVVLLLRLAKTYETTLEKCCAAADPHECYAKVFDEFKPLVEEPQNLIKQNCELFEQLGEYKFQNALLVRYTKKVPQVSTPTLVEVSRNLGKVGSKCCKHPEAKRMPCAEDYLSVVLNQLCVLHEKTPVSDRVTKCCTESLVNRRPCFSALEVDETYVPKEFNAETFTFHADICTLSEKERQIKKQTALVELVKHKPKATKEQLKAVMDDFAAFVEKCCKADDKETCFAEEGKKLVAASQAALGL

PI3K p110 beta/p85 alpha = PI3K p110 beta/p85 alpha (Homo sapiens, UniProt P42338); assay: Inhibition of recombinant human N-terminal His6-tagged full length P110beta/full length untagged human p85alpha expressed in baculovirus infected Sf21 insect cells using PIP2 as substrate preincubated for 15 mins followed by substrate addition and measured after 60 mins by HTRF assay
PI3K p110 beta/p85 alpha, sequence (P27986 whole entry, canonical isoform): as the sequence (P27986 whole entry) above
PI3K p110 beta/p85 alpha, sequence (P42338 whole entry, canonical isoform): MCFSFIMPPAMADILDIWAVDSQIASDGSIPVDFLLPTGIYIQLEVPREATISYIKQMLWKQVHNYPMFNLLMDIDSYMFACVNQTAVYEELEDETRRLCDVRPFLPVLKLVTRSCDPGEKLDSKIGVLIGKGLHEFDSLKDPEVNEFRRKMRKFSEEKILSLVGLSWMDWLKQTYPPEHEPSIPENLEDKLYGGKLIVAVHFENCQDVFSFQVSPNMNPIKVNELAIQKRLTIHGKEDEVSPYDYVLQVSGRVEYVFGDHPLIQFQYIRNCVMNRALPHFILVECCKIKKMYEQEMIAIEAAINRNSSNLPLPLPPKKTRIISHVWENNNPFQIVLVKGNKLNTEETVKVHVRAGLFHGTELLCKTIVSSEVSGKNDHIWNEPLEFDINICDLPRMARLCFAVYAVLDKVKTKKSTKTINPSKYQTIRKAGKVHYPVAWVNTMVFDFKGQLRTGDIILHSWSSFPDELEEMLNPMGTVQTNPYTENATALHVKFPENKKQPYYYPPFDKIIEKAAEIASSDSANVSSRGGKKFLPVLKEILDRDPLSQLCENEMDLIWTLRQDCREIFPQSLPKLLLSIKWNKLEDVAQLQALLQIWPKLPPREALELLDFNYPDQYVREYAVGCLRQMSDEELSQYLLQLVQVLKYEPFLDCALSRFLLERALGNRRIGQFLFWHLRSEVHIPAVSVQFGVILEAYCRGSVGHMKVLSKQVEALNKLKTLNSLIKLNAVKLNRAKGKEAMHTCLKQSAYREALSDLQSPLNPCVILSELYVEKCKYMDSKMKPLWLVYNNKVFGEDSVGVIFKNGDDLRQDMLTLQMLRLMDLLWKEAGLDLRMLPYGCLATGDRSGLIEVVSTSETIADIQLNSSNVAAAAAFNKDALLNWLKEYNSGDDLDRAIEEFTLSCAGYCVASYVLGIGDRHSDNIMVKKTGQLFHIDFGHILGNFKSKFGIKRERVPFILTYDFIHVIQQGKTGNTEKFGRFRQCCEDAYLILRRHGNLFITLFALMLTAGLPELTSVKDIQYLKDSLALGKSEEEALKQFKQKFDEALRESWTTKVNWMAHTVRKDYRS

[2] = molecular target: T1, Phosphatidylinositol 4,5-bisphosphate 3-kinase catalytic subunit delta isoform (Homo sapiens, UniProt O00329); assay: Inhibition of PI3Kdelta in human whole blood assessed as reduction in cytostim-stimulated IFNgamma production preincubated for 1 hr followed by cytostim stimulation and measured after 20 hrs by electrochemiluminescence assay
T1 sequence (O00329 whole entry): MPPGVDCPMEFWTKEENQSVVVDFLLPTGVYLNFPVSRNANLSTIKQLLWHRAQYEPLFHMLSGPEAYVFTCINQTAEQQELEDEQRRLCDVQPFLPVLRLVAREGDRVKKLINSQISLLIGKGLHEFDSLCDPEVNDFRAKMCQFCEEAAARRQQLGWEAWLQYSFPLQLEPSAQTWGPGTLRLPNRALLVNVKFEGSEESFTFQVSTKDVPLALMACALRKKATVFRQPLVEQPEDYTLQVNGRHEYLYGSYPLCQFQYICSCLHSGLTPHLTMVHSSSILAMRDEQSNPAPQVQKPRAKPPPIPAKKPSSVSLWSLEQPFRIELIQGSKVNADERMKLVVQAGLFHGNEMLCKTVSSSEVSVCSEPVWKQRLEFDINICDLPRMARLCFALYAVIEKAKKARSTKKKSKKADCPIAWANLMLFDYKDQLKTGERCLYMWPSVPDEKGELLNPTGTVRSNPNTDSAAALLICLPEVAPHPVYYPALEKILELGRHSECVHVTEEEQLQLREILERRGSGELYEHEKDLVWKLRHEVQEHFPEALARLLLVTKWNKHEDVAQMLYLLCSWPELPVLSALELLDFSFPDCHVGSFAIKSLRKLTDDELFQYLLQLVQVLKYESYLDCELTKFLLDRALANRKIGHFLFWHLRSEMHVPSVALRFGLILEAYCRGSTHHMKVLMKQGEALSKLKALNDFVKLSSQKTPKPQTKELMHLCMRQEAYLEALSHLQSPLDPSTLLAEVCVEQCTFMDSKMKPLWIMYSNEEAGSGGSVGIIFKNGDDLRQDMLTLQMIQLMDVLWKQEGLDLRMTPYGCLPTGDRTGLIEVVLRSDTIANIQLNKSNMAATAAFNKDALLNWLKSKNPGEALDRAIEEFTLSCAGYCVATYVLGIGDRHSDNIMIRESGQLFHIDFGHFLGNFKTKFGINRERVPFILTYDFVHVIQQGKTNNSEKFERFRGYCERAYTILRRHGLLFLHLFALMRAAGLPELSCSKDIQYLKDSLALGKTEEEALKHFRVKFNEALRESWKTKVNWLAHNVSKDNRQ

[3] = molecular target: Phosphatidylinositol 4,5-bisphosphate 3-kinase catalytic subunit gamma isoform (Homo sapiens, UniProt P48736); assay: Inhibition of recombinant human N-terminal His6-tagged full length P120gamma expressed in baculovirus infected Sf21 insect cells using PIP2 as substrate preincubated for 15 mins followed by substrate addition and measured after 60 mins by HTRF assay
Phosphatidylinositol 4,5-bisphosphate 3-kinase catalytic subunit gamma isoform, sequence (P48736 whole entry, canonical isoform): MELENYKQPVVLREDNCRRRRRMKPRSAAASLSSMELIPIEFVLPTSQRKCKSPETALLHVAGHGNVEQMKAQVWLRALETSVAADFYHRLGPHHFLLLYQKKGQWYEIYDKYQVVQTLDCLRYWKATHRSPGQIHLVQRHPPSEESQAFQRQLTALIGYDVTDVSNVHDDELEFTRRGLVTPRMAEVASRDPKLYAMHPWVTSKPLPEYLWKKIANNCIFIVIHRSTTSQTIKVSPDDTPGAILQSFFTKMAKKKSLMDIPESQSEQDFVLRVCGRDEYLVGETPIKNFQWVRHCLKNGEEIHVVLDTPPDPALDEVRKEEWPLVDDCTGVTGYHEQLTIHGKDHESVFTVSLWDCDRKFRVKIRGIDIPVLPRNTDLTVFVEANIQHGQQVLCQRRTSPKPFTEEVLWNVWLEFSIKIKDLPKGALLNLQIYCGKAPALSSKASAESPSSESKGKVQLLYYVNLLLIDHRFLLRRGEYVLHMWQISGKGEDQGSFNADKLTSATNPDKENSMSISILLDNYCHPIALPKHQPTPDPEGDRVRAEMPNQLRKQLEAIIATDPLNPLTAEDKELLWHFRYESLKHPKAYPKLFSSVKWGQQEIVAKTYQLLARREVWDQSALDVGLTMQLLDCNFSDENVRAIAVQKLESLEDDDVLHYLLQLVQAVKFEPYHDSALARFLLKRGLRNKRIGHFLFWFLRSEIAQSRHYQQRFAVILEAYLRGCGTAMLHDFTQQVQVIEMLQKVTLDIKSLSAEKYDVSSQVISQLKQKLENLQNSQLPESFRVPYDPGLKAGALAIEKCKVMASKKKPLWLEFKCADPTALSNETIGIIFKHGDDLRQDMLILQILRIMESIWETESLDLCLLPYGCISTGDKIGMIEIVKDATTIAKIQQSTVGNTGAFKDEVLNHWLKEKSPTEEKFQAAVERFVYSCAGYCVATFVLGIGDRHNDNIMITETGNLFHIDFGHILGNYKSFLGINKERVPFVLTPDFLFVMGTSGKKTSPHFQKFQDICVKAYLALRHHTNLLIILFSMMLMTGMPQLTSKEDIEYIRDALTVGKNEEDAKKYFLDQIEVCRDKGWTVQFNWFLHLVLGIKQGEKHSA

[4] = molecular target: PI3-kinase p110-delta/p85-alpha (Homo sapiens, UniProt O00329); assay: Inhibition of recombinant human N-terminal His6-tagged full length P110delta/full length untagged human p85alpha expressed in baculovirus infected Sf21 insect cells using PIP2 as substrate preincubated for 15 mins followed by substrate addition and measured after 60 mins by HTRF assay
PI3-kinase p110-delta/p85-alpha, sequence (P27986 whole entry, one chain of several): as the sequence (P27986 whole entry) above

[5] = Genotoxicity in Salmonella typhimurium by Ames test; format: toxicity; conditions: salmonella enterica subsp. enterica serovar typhimurium
[6] = Solubility in pH 6.5 FaSSIF incubated for 4 hrs using crystalline free base of sample by UV-HPLC method; format: physicochemical
[7] = AUC in Wistar Han rat at 1 mg/kg, po administered via gavage or 1 mg/kg, iv administered as infusion for 1 hr by RP LC-MS/MS analysis; format: ADME, organism-based; design: dose 1 mg/kg; conditions: in vivo
[8] = Fraction unbound in rat blood; format: ADME, tissue-based
[9] = Lipophilicity, log D of compound by chromatographic method; format: physicochemical
Mus musculus = assay: Antiinflammatory activity in house dust-mite-induced Balb/c mouse model of inflammation assessed as reduction in BAL IL-5 level at 0.1 to 10 mg/kg administered 7 days prior to HDM re-challenge and measured 4 hrs post-HDM re-challenge; format: functional, organism-based; conditions: dose 0.1-10 mg/kg, time 7.0 day
[10] = Intrinsic clearance in Wistar Han rat liver microsomes at 0.5 uM measured up to 45 mins in presence of NADPH by LC-MS/MS analysis; format: ADME, Microsome; conditions: read-out: CLH
[11] = Fraction unbound in human blood; format: ADME, tissue-based
[12] = Volume of distribution at steady state in Wistar Han rat at 1 mg/kg, po administered via gavage or 1 mg/kg, iv administered as infusion for 1 hr by RP LC-MS/MS analysis; format: ADME, organism-based; conditions: in vivo, read-out: Vdss
[13] = Oral bioavailability in Wistar Han rat at 1 mg/kg administered via gavage by RP LC-MS/MS analysis; format: ADME, organism-based; conditions: in vivo
[14] = Clearance in Wistar Han rat at 1 mg/kg, po administered via gavage or 1 mg/kg, iv administered as infusion for 1 hr by RP LC-MS/MS analysis; format: ADME, organism-based; conditions: in vivo
[15] = Permeability of compound in MDCK cells; format: ADME, cell-based, Canis lupus familiaris; conditions: dog, read-out: permeability
[16] = Half life in Wistar Han rat at 1 mg/kg, po administered via gavage or 1 mg/kg, iv administered as infusion for 1 hr by RP LC-MS/MS analysis; format: ADME, organism-based; conditions: in vivo
Cytochrome P450 3A4 = Cytochrome P450 3A4 (Homo sapiens, UniProt P08684); assay: Time-dependent inhibition of CYP3A4 in human liver microsomes using midazolam as substrate; format: ADME
in vitro = conditions: human, pooled liver microsomes
Description: Intrinsic clearance in pooled human liver microsomes at 0.5 uM measured up to 45 mins in presence of NADPH by LC-MS/MS analysis

[17] = molecular target: Voltage-gated inwardly rectifying potassium channel KCNH2 (Homo sapiens, UniProt Q12809); assay: Inhibition of human ERG
[18] = Clearance in Wistar Han rat at 1 mg/kg, iv administered as infusion for 1 hr by RP LC-MS/MS analysis; format: ADME, organism-based; conditions: in vivo
[19] = molecular target: Phosphatidylinositol 3-kinase catalytic subunit type 3 (Homo sapiens, UniProt Q8NEB9); assay: Inhibition of VPS34 in human HL-60 cell extract measured after 2 hrs by kinobeads based chemoproteomic competition binding assay; format: tissue-based
[20] = Volume of distribution at steady state in Wistar Han rat at 1 mg/kg, iv administered as infusion for 1 hr by RP LC-MS/MS analysis; format: ADME, organism-based; conditions: in vivo, read-out: Vdss
[21] = Solubility in pH 6.5 FaSSIF incubated for 4 hrs using amorphous form of sample by UV-HPLC method; format: physicochemical
[22] = Half life in Wistar Han rat at 1 mg/kg, iv administered as infusion for 1 hr by RP LC-MS/MS analysis; format: ADME, organism-based; conditions: in vivo
[23] = molecular target: T1, Phosphatidylinositol 4,5-bisphosphate 3-kinase catalytic subunit delta isoform; assay: Inhibition of PI3Kdelta in human HL-60 cell extract measured after 2 hrs by kinobeads based chemoproteomic competition binding assay; format: tissue-based

SMILES | IC50 [1] [nM] | fraction unbound (serum albumin) | IC50 (PI3K p110 beta/p85 alpha) [nM] | IC50 [2] [nM] | IC50 [3] [nM] | IC50 [4] [nM] | chromatographic logD [9] | CLint scaled at 0.5 µM [10] [mL/min/kg] | CLint scaled at 0.75 h, 0.5 µM (in vitro) [mL/min/kg] | Ki [4] [nM] | further results
COc1ncc(C2=CCOCC2)cc1S(=O)(=O)Nc1cncc(C)c1 | 3160 | 0.09 | 398 | 3980 | 5010 | 20 | – | – | – | – | Ratio IC50 (Homo sapiens): 100
COc1ncc(N2CCOCC2)cc1S(=O)(=O)Nc1ccnc(-c2ccc(CN3CCN(C(C)C)CC3)cc2F)c1 | 1000 | – | 5010 | 6.31 | 2000 | 0.794 | 1.9 | < 0.46 | < 0.4 | 0.0126 | Activity [5]: Non-Toxic; solubility thermodynamic at 4 h [6]: 899 µg/mL (≈ 1540 µM); AUC [7]: 2020 ng·h/mL; fraction unbound [8]: 0.021; Activity (Mus musculus): Active; fraction unbound [11]: 0.132; Vd [12]: 0.5 L/kg; bioavailability [13]: 46%; clearance [14]: 3.8 mL/min/kg; Papp [15]: 2.3 ×10⁻⁶ cm/s; half-life [16]: 2.6 h; TDI (Cytochrome P450 3A4): Not Active
COc1ncc(C2=CCOCC2)cc1S(=O)(=O)Nc1ccnc(C)c1 | 3980 | 0.21 | 316 | 316 | 3980 | 31.6 | – | – | – | – | Ratio IC50 (Homo sapiens): 10
COc1ncc(C2=CCOCC2)cc1S(=O)(=O)Nc1cncc(C#CCN2CCN(C(C)C)CC2)c1 | 5010 | 0.17 | 5010 | 50.1 | 25100 | 6.31 | 1.8 | 0.54 | < 0.4 | – | IC50 [17]: > 50100 nM; clearance [18]: 8.6 mL/min/kg; IC50 [19]: 100 nM; Vd [20]: 0.3 L/kg; solubility at 4 h [21]: > 1000 µg/mL; half-life [22]: 1 h; IC50 [23]: 1.58 nM
COc1ncc(N2CCOCC2)cc1S(=O)(=O)Nc1ccnc(-c2ccc(CN3CCN(C(C)C)CC3)c(F)c2)c1 | 1580 | – | 7940 | 3.16 | 3980 | 1.58 | 1.8 | < 0.46 | < 0.4 | 0.0501 | –
COc1ncc(N2CCOCC2)cc1S(=O)(=O)Nc1cncc(-c2ccc(CN3CCCC3)cc2F)c1 | 1000 | – | 1580 | 20 | 2510 | 3.16 | 2.4 | < 0.46 | < 0.4 | – | clearance [18]: 8.8 mL/min/kg; Vd [20]: 0.6 L/kg; half-life [22]: 0.53 h
COc1ncc(C2=CCOCC2)cc1S(=O)(=O)Nc1cncc(-c2ccc(CN3CCNCC3)cc2)c1 | 3160 | – | 794 | 12.6 | 7940 | 3.16 | 3.3 | 3.18 | 2.21 | 0.126 | –
